We go through 31 compounds from patent publication US20170166561A1, “QUINUCLIDINE COMPOUNDS FOR MODULATING ALPHA7-NICOTINIC ACETYLCHOLINE RECEPTOR ACTIVITY” (Alpharmagen, LLC, priority 2014, published 2017).

Counter-ions that a name gives are not always drawn.

The first data set can be described thus: Human plasma stability (Protocols 1 and 2). Type of data set: in vitro ADME. As to conditions: Protocol 1; human plasma pH 7.4, 1 μM, 37° C., 2 h. The protocol: Example B6: Human Plasma Stability
Studies were carried out in human plasma. All plasma was obtained from Bioreclamation and collected on sodium heparin. Plasma was adjusted to pH 7.4. A DMSO stock was first prepared for the test compound. An aliquot of the DMSO solution was dosed into 1 mL of plasma, which had been pre-warmed to 37° C., at a final test compound concentration of 1 μM. The vials were kept in a benchtop Thermomixer® for the duration of the experiment. Aliquots (100 μL) were taken at each time point (0, 15, 30, 60, and 120 minutes) and added to 96-well plates which had been pre-filled with 300 μL of acetonitrile. Samples were stored at 4° C. until the end of the experiment. After the final time point was sampled, the plate was mixed and then centrifuged at 3,000 rpm for 10 minutes. Aliquots of the supernatant were removed, diluted 1:1 into distilled water, and analyzed by LC-MS/MS. The peak area response ratio to internal standard (PARR) of the compound at 15, 30, 60 and 120 minutes was compared to the PARR at time 0 to determine the percent of test compound remaining at each time point. Half-lives were calculated using GraphPad software, fitting to a single-phase exponential decay equation.
Studies were carried out in plasma. Plasma was prepared under approval of IRB and IACUC on sodium heparin. The pH of plasma was monitored and used within the range of pH 7.4 to pH 8.0. DMSO stocks were prepared for the test compounds. Aliquots of the DMSO solutions were diluted to 0.05 mM by 0.05 mM Sodium phosphate buffer with 0.5% BSA. Then 10 μL of 0.05 mM solutions were dosed into 90 μL of plasma in duplicates (n=2), which had been pre-warmed to 37° C., at a final test compound concentration of 5 μM. The plates were kept in a 37° C. water bath for the duration of the experiment. At each time point (0, 5, 15, 30, 45, 60, and 120 minutes), 400 μL of acetonitrile was added into corresponding wells. After the final time point was sampled, the plates were shaken at the vibrator (IKA, MTS 2/4) for 10 min (600 rpm/min) and then centrifuged at 5594 g for 15 min (Thermo Multifuge×3R). Aliquots of the supernatant were removed, diluted 1:1 into distilled water, and analyzed by LC-MS/MS. The peak area response ratio to internal standard (PARR) of the compounds at 5, 15, 30, 45, 60, and 120 minutes was compared to the PARR at time 0 to determine the percent of test compound remaining at each time point. Half-lives were calculated using Excel software, fitting to a single-phase exponential decay equation.
Regarding `Cl.O=C(OCC12CCN(CC1)CC2)c1c[nH]c2cc3c(cc12)OCCO3` [Compound 30, Quinuclidin-4-ylmethyl 2,3-dihydro-6H-[1,4]dioxino[2,3-f]indole-8-carboxylate hydrochloride], the “% Remaining @ 2 h” value came out at 10%.

Staying with this data set, now noted: human, plasma, 2 h, 1 μM, pH 7.4.
On to `O=C(OCC12CCN(CC1)CC2)c1c[nH]c2cc(Cl)ccc12` [Compound 26, quinuclidin-4-ylmethyl 6-chloro-1H-indole-3-carboxylate], for which the “% Remaining @ 2 h” value came out at 65%.
Same read-out and setting: the figure for `O=C(OCC12CCN(CC1)CC2)c1c[nH]c2ccc(F)cc12` [Compound 12, quinuclidin-4-ylmethyl 5-fluoro-1H-indole-3-carboxylate] is 31%; for `COc1cccc2[nH]cc(C(=O)OCC34CCN(CC3)CC4)c12` [Compound 36, quinuclidin-4-ylmethyl 4-methoxy-1H-indole-3-carboxylate] it is 2.5%.
On to `COc1ccc2[nH]cc(C(=O)OCC34CCN(CC3)CC4)c2c1C` [Compound 34, quinuclidin-4-ylmethyl 5-methoxy-4-methyl-1H-indole-3-carboxylate], for which the “% Remaining @ 2 h” value turned out to be 55%.
On the same count and under the same terms, the figure for `O=C(OCC12CCN(CC1)CC2)c1c[nH]c2cc(Br)ccc12` [Compound 22, quinuclidin-4-ylmethyl 6-bromo-1H-indole-3-carboxylate] is 58%; for `COc1ccc2[nH]cc(C(=O)OCC34CCN(CC3)CC4)c2c1` [Compound 18, quinuclidin-4-ylmethyl 5-methoxy-1H-indole-3-carboxylate] it is 5.8%; for `O=C(OCC12CCN(CC1)CC2)c1c[nH]c2ccccc12` [Compound 1, quinuclidin-4-ylmethyl 1H-indole-3-carboxylate] it is 11%.
Still for that read-out and setting: the figure for `Cc1ccc2[nH]cc(C(=O)OCC34CCN(CC3)CC4)c2c1` [Compound 20, quinuclidin-4-ylmethyl 5-methyl-1H-indole-3-carboxylate] is 14%.

The same data set, now with this note: human, plasma, pH 7.4.
In the case of `COc1cc2c(C(=O)OCC34CCN(CC3)CC4)c[nH]c2cc1O` [Compound 86, quinuclidin-4-ylmethyl 6-hydroxy-5-methoxy-1H-indole-3-carboxylate], the half-life at 5 μM was determined as 0.954 h.
Regarding `COc1cc(C)c2c(C(=O)OCC34CCN(CC3)CC4)c[nH]c2c1` [Compound 37, quinuclidin-4-ylmethyl 6-methoxy-4-methyl-1H-indole-3-carboxylate], the T1/2 entry is “∞”.
As to `Cc1cc(C#N)cc2[nH]cc(C(=O)OCC34CCN(CC3)CC4)c12` [Compound 60, quinuclidin-4-ylmethyl 6-cyano-4-methyl-1H-indole-3-carboxylate], the half-life at 5 μM amounted to 22.9 h.
Compound `O=C(OCC12CCN(CC1)CC2)c1c[nH]c2ccc(F)c(Br)c12` [Compound 67, quinuclidin-4-ylmethyl 4-bromo-5-fluoro-1H-indole-3-carboxylate] displayed a half-life at 5 μM of 96.9 h.
On the same count and under the same terms, the value for `COCCCOc1ccc2[nH]cc(C(=O)OCC34CCN(CC3)CC4)c2c1C` [Compound 92, quinuclidin-4-ylmethyl 5-(3-methoxypropoxy)-4-methyl-1H-indole-3-carboxylate] was 3.13 h.
For the compound `Cc1cc(Cl)cc2[nH]cc(C(=O)OCC34CCN(CC3)CC4)c12` [Compound 50, quinuclidin-4-ylmethyl 6-chloro-4-methyl-1H-indole-3-carboxylate], the T1/2 entry is listed as “∞”.
`COc1cc(Br)c2c(C(=O)OCC34CCN(CC3)CC4)c[nH]c2c1` [Compound 48, quinuclidin-4-ylmethyl 4-bromo-6-methoxy-1H-indole-3-carboxylate] showed a half-life at 5 μM of 982 h.
Regarding `Cc1c(F)ccc2[nH]cc(C(=O)OCC34CCN(CC3)CC4)c12` [Compound 43, quinuclidin-4-ylmethyl 5-fluoro-4-methyl-1H-indole-3-carboxylate], the T1/2 entry was “∞”.
In turn, `COc1cc2[nH]cc(C(=O)OCC34CCN(CC3)CC4)c2cc1C` [Compound 56, quinuclidin-4-ylmethyl 6-methoxy-5-methyl-1H-indole-3-carboxylate] registered a half-life at 5 μM of 5.72 h.
Still for that read-out and setting: the value for `Cc1c(OCC(F)(F)F)ccc2[nH]cc(C(=O)OCC34CCN(CC3)CC4)c12` [Compound 94, quinuclidin-4-ylmethyl 4-methyl-5-(2,2,2-trifluoroethoxy)-1H-indole-3-carboxylate] was 5.74 h.
Regarding `COc1c(OCC(F)(F)F)ccc2[nH]cc(C(=O)OCC34CCN(CC3)CC4)c12` [Compound 88, quinuclidin-4-ylmethyl 4-methoxy-5-(2,2,2-trifluoroethoxy)-1H-indole-3-carboxylate], the T1/2 result is “∞”.
In turn, `COc1ccc2[nH]cc(C(=O)OCC34CCN(CC3)CC4)c2c1Br` [Compound 47, quinuclidin-4-ylmethyl 4-bromo-5-methoxy-1H-indole-3-carboxylate] registered a half-life at 5 μM of 4.34 h.
`CNCCCOc1ccc2[nH]cc(C(=O)OCC34CCN(CC3)CC4)c2c1C` [Compound 96, quinuclidin-4-ylmethyl 4-methyl-5-(3-(methylamino)propoxy)-1H-indole-3-carboxylate dihydrochloride] gave a half-life at 5 μM of 0.114 h.
Still for that read-out and setting: the figure for `O=C(OCC12CCN(CC1)CC2)c1c[nH]c2ccc(F)c(Cl)c12` [Compound 62, quinuclidin-4-ylmethyl 4-chloro-5-fluoro-1H-indole-3-carboxylate hydrochloride] is 5.91 h; for `CC(=O)Nc1cc(C)c2c(C(=O)OCC34CCN(CC3)CC4)c[nH]c2c1` [Compound 93, quinuclidin-4-ylmethyl 6-acetamido-4-methyl-1H-indole-3-carboxylate] it is 10.7 h.
In turn, `COCCOc1ccc2[nH]cc(C(=O)OCC34CCN(CC3)CC4)c2c1C` [Compound 91, quinuclidin-4-ylmethyl 5-(2-methoxyethoxy)-4-methyl-1H-indole-3-carboxylate] came in with a half-life at 5 μM of 8.32 h.
With `Cc1ccc2[nH]cc(C(=O)OCC34CCN(CC3)CC4)c2c1Br` [Compound 68, quinuclidin-4-ylmethyl 4-bromo-5-methyl-1H-indole-3-carboxylate], the T1/2 result is given as “∞”.
In turn, `O=C(OCC12CCN(CC1)CC2)c1c[nH]c2ccc3c(c12)OCCO3` [Compound 81, quinuclidin-4-ylmethyl 2,3-dihydro-7H-[1,4]dioxino[2,3-e]indole-9-carboxylate] gave a half-life at 5 μM of 4.5 h.

The same data set, now with this note: human; Protocol 2; plasma pH 7.4 to 8.0, 5 μM, 37° C.; read-out: T1/2.
On to `O=C(OCC12CCN(CC1)CC2)c1c[nH]c2cc(O)cc(Br)c12` [Compound 53, quinuclidin-4-ylmethyl 4-bromo-6-hydroxy-1H-indole-3-carboxylate], for which the half-life at 5 μM was determined as 31.1 h.
On the same count and under the same terms, the figure for `Cl.O=C(OCC12CCN(CC1)CC2)c1c[nH]c2cc(Cl)c(F)cc12` [Compound 52, Quinuclidin-4-ylmethyl 6-chloro-5-fluoro-1H-indole-3-carboxylate hydrochloride] is 8.88 h.
Still for that read-out and setting: the value for `Cc1cc2[nH]cc(C(=O)OCC34CCN(CC3)CC4)c2cc1F` [Compound 72, Quinuclidin-4-ylmethyl 5-fluoro-6-methyl-1H-indole-3-carboxylate hydrochloride] was 3.8 h.
On to `Cl.O=C(OCC12CCN(CC1)CC2)c1c[nH]c2cc(Cl)cc(Cl)c12` [Compound 71, quinuclidin-4-ylmethyl 4,6-dichloro-1H-indole-3-carboxylate hydrochloride], for which the half-life at 5 μM was determined as 4.71 h.
